# Laboratory results: patent publication US10214512B2, “Factor XIA inhibitors” (MERCK SHARP & DOHME CORP., priority 2015, dated 2019)
# Molecular target: purified human Factor XIa (Homo sapiens (Human), UniProt P03951)
# Assay: Factor XIa Assay
# Assay type: biochemical
# Conditions: purified human Factor XIa 40 pM; substrate Z-Gly-Pro-Arg-AFC 100 μM; 50 mM HEPES pH 7.4; read-out: Human FXIa Ki
# Procedure: (§1) The effectiveness of a compound of the present invention as an inhibitor of Coagulation Factor XIa can be determined using a relevant purified serine protease, and an appropriate synthetic substrate. The rate of hydrolysis of the chromogenic or fluorogenic substrate by the relevant serine protease was measured both in the absence and presence of compounds of the present invention. Assays were conducted at rt or at 37° C. […] A decrease in the rate of fluorescence change in the presence of inhibitor is indicative of enzyme inhibition. Such methods are known to one skilled in the art. The results of this assay are expressed as the inhibitory constant, Ki.
# Factor XIa determinations were made in 50 mM HEPES buffer at pH 7.4 containing 150 mM NaCl, 5 mM CaCl2, and 0.1% PEG 8000 (polyethylene glycol; JT Baker or Fisher Scientific). Determinations were made using purified human Factor XIa at a final concentration of 40 pM (Sekisui Diagnostics) and he synthetic substrate, Z-Gly-Pro-Arg-AFC, TFA salt (Sigma #C0980) at a concentration of 100 μM.
# Times required to achieve equilibration between enzyme and inhibitor were determined in control experiments. Initial velocities of product formation in the absence (Vo) or presence of inhibitor (Vi) were measured. Assuming competitive inhibition, and that unity is negligible compared Km/[S], [I]/e, and [I]/e (where [S], [I], and e respectively represent the total concentrations, of substrate, inhibitor and enzyme), the equilibrium constant (Ki) for dissociation of the inhibitor from the enzyme can be obtained from the dependence of Vo/Vi on [I] shown in the following equation.
# Sequence of purified human Factor XIa (P03951 388-625): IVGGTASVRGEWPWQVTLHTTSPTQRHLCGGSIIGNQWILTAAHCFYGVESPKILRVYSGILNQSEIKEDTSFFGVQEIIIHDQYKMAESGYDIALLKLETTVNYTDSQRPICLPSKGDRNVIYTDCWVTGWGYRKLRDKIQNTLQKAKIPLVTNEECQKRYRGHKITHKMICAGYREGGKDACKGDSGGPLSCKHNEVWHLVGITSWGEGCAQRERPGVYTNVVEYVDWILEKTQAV
# Sequence of purified human Factor XIa (P03951 19-387 partner): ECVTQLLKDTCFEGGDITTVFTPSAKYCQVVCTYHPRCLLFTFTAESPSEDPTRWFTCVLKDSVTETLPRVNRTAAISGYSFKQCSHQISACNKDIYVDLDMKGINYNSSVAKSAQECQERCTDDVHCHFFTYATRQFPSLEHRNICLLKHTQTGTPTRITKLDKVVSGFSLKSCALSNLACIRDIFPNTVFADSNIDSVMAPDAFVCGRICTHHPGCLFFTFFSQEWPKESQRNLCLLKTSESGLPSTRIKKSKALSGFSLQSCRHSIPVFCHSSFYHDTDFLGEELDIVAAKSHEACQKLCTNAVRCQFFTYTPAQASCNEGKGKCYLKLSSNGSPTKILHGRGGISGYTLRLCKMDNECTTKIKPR
row,Structure (SMILES),Ki [nM]
1,"O=C1CCCC[C@H](c2ccc(-c3c(F)ccc(Cl)c3F)c[n+]2[O-])c2cccc(c2)-c2ccc(NC(=O)OCCO)cc2N1 [Example 46, (S)-5-(3-chloro-2,6-difluorophenyl)-2-(2^4-(((2-hydroxyethoxy)carbonyl)amino)-4-oxo-3-aza-1(1,3),2(1,2) -dinenzenacyclononaphane-9-yl)pyridine 1-oxide]",0.24
2,"O=C1CCCCC(c2ccc(-c3c(F)ccc(Cl)c3F)cn2)c2cccc(c2)-c2cc3c(O)cc(=O)[nH]c3cc2N1 (centres unmarked) [Example 49, 3-(5-(3-chloro-2,6-difluorophenyl)pyridin-2-yl)-1^4-hydroxy-1^1,1^2-dihydro-9-aza-1 (6,7)-quinolina-2(1,3)-benzenacyclononaphane-1^2,8-dione]",15.6
3,"COC(=O)Nc1ccc2c(c1)NC(=O)CCCCC(c1ccc(-c3c(F)ccc(Cl)c3F)cn1)c1cc(F)cc-2c1 (centres unmarked) [Example 53, methyl (9-(5-(3-chloro-2,6-difluorophenyl)pyridin-2-yl)-1^5-fluoro-4-oxo-3-aza-1(1,3),2(1,2)-dibenzenacyclononaphane-2^4-yl)carbamate]",> 875
4,"COC(=O)Nc1ccc2c(c1)NC(=O)CCCCC(c1ccc(-c3c(F)ccc(Cl)c3F)cn1)c1ccc(F)c-2c1 (centres unmarked) [Example 54, methyl (9-(5-(3-chloro-2,6-difluorophenyl)pyridin-2-yl)-1^6-fluoro-4-oxo-3-aza-1(1,3),2(1,2)-dibenzenacyclononaphane-2^4-yl)carbamate]",839
5,"COC(=O)Nc1ccc2c(c1)NC(=O)CCCCC(c1ccc(-c3c(F)ccc(Cl)c3F)cn1)c1cc(F)c(F)c-2c1 (centres unmarked) [Example 55, methyl (9-(5-(3-chloro-2,6-difluorophenyl)pyridin-2-yl)-1^5,1^6-difluoro-4-oxo-3-aza-1(1,3),2(1,2)-dibenzenacyclononaphane-2^4-yl)carbamate]",> 875
6,"COC(=O)Nc1ccc2c(c1)NC(=O)CCCCC(c1ccc(-c3c(F)ccc(Cl)c3F)cn1)c1cc-2ncc1F (centres unmarked) [Example 58, methyl (9-(5-(3-chloro-2,6-difluorophenyl)pyridin-2-yl)-1^5-fluoro-4-oxo-3-aza-1(2,4)-pyridina-2(1,2)-benzenacyclononaphane-2^4-yl)carbamate]",167
7,"O=C1CCCCC(c2ccc(-c3c(-n4cnnn4)ccc(Cl)c3F)cn2)c2cc(ncc2F)-c2cc(F)ccc2N1 (centres unmarked) [Example 59, 9-(5-(3-chloro-2-fluoro-6-(1h-tetrazol-1-yl)phenyl)pyridin-2-yl)-1^5,2^5-difluoro-3-aza-1(2,4)-pyridina-2(1,2)-benzenacyclononaphan-4-one]",8.9
8,"COC(=O)Nc1ccc2c(c1)NC(=O)CCCCC(c1ccc(-c3c(F)ccc(Cl)c3F)cn1)c1cc-2c(F)cn1 (centres unmarked) [Example 60, methyl (9-(5-(3-chloro-2,6-difluorophenyl)pyridin-2-yl)-1^5-fluoro-4-oxo-3-aza-1(4,2)-pyridina-2(1,2)-benzenacyclononaphane-2^4-yl)carbamate]",342
9,"COC(=O)Nc1ccc2c(c1)NC(=O)CCCCC(c1ccc(-c3c(F)ccc(Cl)c3F)cn1)c1cc-2ccn1 (centres unmarked) [Example 62, methyl (9-(5-(3-chloro-2,6-difluorophenyl)pyridin-2-yl)-4-oxo-3-aza-1(4,2)-pyridina-2(1,2)-benzenacyclononaphane-2^4-yl)carbamate]",33
10,"COC(=O)Nc1ccc2c(c1)NC(=O)CCCCC(c1ccc(-c3c(F)ccc(Cl)c3F)cn1)c1ccc(F)c-2n1 (centres unmarked) [Example 63, methyl (9-(5-(3-chloro-2,6-difluorophenyl)pyridin-2-yl)-1^3-fluoro-4-oxo-3-aza-1(2,6)-pyridina-2(1,2)-benzenacyclononaphane-2^4-yl)carbamate]",> 875
11,"COC(=O)Nc1ccc2c(c1)NC(=O)CCCCC(c1ccc(-c3c(F)ccc(Cl)c3F)cn1)c1cc-2ncn1 (centres unmarked) [Example 64, methyl (9-(5-(3-chloro-2,6-difluorophenyl)pyridin-2-yl)-4-oxo-3-aza-1(4,6)-pyrimidina-2(1,2)-benzenacyclononaphane-2^4-yl)carbamate]",164
12,"COC(=O)Nc1ccc2c(c1)NC(=O)CCCCC(c1ccc(-c3c(F)ccc(Cl)c3F)c[n+]1[O-])c1ccc(F)c-2n1 (centres unmarked) [Example 74, 5-(3-chloro-2,6-difluorophenyl)-2-(1^3-fluoro-2^4-((methoxycarbonyl)amino)-4-oxo-3-aza-1(2,6)-pyridina-2(1,2)-benzenacyclononaphane-9-yl)pyridine 1-oxide]",180
13,COC(=O)Nc1ccc2c(c1)NC(=O)CCCCC(c1ccc(-c3c(-n4cc(C(F)(F)F)cn4)ccc(Cl)c3F)c[n+]1[O-])c1nc-2c[nH]1 (centres unmarked) [Example 116],208
14,"Cn1cc2c(n1)-c1cccc(c1)C(c1ccc(-c3c(F)ccc(Cl)c3F)c[n+]1[O-])CCCCC(=O)N2 (centres unmarked) [Example 163, 5-(3-chloro-2,6-difluorophenyl)-2-(1^1-methyl-8-oxo-1^1H-9-aza-1(3,4) -pyrazola-2(1,3)-benzenacyclononaphane-3-Yl)pyridine 1-oxide]",22.6
15,"Cn1ncc2c1-c1cccc(c1)C(c1ccc(-c3c(F)ccc(Cl)c3F)c[n+]1[O-])CCCCC(=O)N2 (centres unmarked) [Example 164, 5-(3-chloro-2,6-difluorophenyl)-2-(1^1-methyl-8-oxo-1H-9-aza-1(5,4) -pyrazola-2(1,3)-benzenacyclononaphane-3-Yl)pyridine 1-oxide]",> 875

# Molecular target: purified Human plasma Kallikrein (Homo sapiens (Human), UniProt P03952)
# Sequence (P03952 391-638): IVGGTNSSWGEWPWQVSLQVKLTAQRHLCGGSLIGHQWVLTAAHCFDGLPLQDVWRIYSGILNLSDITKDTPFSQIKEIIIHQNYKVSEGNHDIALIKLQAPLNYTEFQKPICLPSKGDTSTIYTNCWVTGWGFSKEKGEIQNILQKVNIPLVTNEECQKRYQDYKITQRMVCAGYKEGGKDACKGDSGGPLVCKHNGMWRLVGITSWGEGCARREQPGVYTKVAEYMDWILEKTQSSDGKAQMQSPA
# Sequence (P03952 20-390 partner): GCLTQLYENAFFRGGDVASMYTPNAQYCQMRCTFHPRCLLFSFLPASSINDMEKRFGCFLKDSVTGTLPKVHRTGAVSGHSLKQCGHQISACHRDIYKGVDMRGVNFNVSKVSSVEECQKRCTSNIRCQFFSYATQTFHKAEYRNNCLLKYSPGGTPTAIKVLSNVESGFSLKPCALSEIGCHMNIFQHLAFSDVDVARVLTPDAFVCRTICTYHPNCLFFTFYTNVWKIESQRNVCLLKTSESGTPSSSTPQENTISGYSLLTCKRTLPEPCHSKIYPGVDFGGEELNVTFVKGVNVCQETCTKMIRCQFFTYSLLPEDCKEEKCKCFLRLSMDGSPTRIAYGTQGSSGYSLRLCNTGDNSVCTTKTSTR
# Assay: Kallikrein Assay
# Assay type: biochemical
# Conditions: purified Human plasma Kallikrein 0.5 nM; substrate Acetyl-K-P-R-AFC; 50 mM HEPES pH 7.4; Ki from IC50 by Cheng Prusoff
# Procedure: as §1, with “Kallikrein” for “Coagulation Factor XIa”
# Kallikrein determinations were made in 50 mM HEPES buffer at pH 7.4 containing 150 mM NaCl, 5 mM CaCl2, and 0.1% PEG 8000 (polyethylene glycol; Fisher Scientific). Determinations were made using purified Human plasma Kallikrein at a final concentration of 0.5 nM (Enzyme Research Laboratories) and the synthetic substrate, Acetyl-K-P-R-AFC (Sigma # C6608) at a concentration of […].
# Times required to achieve equilibration between enzyme and inhibitor were determined in control experiments. […] IC50 was determined by inflection point from a four parameter logistic curve fit. Ki was calculated using the Cheng Prusoff equation, Ki=IC50/(1+([S]/Km)).
row,Structure (SMILES),Ki [nM]
1,"COC(=O)Nc1ccc2c(c1)NC(=O)CCCC[C@H](c1ccc(-c3c(F)cccc3OC(F)F)c[n+]1[O-])c1cccc-2c1 (single isomer, unassigned) [Example 34]",5.01
2,"COC(=O)Nc1ccc2c(c1)NC(=O)CCCC[C@H](c1ccc(-c3cc(Cl)ccc3-c3cnco3)c[n+]1[O-])c1cccc-2c1 (single isomer, unassigned) [Example 35]",0.7
3,"COC(=O)Nc1ccc2c(c1)NC(=O)CCCC[C@H](c1ccc(-c3cc(Cl)ccc3-n3cc(C4CC4)nn3)c[n+]1[O-])c1cccc-2c1 (single isomer, unassigned) [Example 38]",0.95
4,"COC(=O)Nc1ccc2c(c1)NC(=O)CCCC[C@H](c1ccc(-c3c(F)ccc(Cl)c3F)c[n+]1[O-])c1ccc(F)c-2c1 (single isomer, unassigned) [Example 68]",2.09
5,"COC(=O)Nc1ccc2c(c1)NC(=O)CCCC[C@H](c1ccc(-c3cc(Cl)ccc3-n3cnnn3)c[n+]1[O-])c1cc-2ncc1F (single isomer, unassigned) [Example 71]",0.33
6,"COC(=O)Nc1ccc2c(c1)NC(=O)[C@H](C)CCC[C@H](c1ccc(-c3cc(Cl)ccc3OC(F)(F)F)c[n+]1[O-])c1cccc-2c1 (single isomer, unassigned) [Example 77-a]",1.69
7,"COC(=O)Nc1ccc2c(c1)NC(=O)[C@@H](C)CCC[C@H](c1ccc(-c3cc(Cl)ccc3OC(F)(F)F)c[n+]1[O-])c1cccc-2c1 (single isomer, unassigned) [Example 77-b]",17.3
8,"COC(=O)Nc1ccc2c(c1)NC(=O)C(C)CCCC(c1cc(OC)c(-c3c(F)ccc(Cl)c3F)c[n+]1[O-])c1cccc-2c1 (single isomer, unassigned) [Example 88-b, 5-(3-Chloro-2,6-difluorophenyl)-4-methoxy-2-(2^4-((methoxycarbonyl)amino)-5-methyl-4-oxo-3-aza-1(1,3),2(1,2) -dibenzenacyclononaphane-9-yl)pyridine 1-oxide]",2.67
